From patent US7902237B2, “Heterocyclic compounds as pharmaceutical agents” (Exelixis, Inc., priority 2004, dated 2011) come the findings set out here.

The target in assay [1] is T1, full length human farnesoid X receptor (Homo sapiens, UniProt Q96RI1).
T1 construct: CMX-farnesoid X receptor (full length human farnesoid X receptor); expressed in transfected cells; host or cells: CV-1 African Green Monkey Kidney cells
T1 sequence (Q96RI1 1-472 isoform Q96RI1-2): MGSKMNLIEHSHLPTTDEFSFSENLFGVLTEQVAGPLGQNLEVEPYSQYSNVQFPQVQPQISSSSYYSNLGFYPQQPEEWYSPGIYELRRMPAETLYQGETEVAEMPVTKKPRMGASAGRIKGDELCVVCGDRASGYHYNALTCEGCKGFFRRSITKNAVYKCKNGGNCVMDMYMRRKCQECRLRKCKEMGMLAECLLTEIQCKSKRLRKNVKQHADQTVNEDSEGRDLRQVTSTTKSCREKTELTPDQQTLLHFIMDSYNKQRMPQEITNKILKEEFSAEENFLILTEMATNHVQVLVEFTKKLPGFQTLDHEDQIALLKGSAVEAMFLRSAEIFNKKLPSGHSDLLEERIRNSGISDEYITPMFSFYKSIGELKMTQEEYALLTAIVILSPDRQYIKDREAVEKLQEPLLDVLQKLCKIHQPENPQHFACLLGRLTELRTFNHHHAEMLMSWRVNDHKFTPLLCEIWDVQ
T1 sequence (P19793 1-462 partner): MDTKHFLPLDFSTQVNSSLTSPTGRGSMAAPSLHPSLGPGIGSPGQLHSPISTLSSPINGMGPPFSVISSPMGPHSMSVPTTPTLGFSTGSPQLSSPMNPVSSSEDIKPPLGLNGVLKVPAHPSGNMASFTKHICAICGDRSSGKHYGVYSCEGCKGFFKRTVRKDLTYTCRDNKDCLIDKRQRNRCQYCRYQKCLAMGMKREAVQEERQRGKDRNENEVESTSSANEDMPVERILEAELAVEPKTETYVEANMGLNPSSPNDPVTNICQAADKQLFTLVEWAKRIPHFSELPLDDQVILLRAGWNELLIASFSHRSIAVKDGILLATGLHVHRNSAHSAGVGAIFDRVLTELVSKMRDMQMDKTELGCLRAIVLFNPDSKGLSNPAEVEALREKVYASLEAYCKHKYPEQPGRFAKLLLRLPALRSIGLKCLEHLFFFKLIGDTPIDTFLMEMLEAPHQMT
The experiment in a line: farnesoid X receptor/ECREx7 co-transfection assay. Format: cell-based. The conditions noted are these: for EC50: CV-1 cells; for Emax: agonist efficacy relative to chenodeoxycholic acid (CDCA) maximum response. The procedure: (§1) The basic co-transfection protocol for measuring the farnesoid X receptor activity is as follows. CV-1 African Green Monkey Kidney cells were plated 24 hours before transfection to achieve approximately 70-80 percent confluency. Cells were transfected with the following expression vectors, CMX-farnesoid X receptor (full length human farnesoid X receptor), CMX-7RXRα (full length human RXR), Luc12 (ECREx7-Tk-Luciferase) luciferase reporter gene construct. (See WO 00/76523, Venkateswaran et al., (2000) J. Biol. Chem. 275 14700-14707). A CMX-β-Galactosidase expression vector was used as a transfection control. The transfection reagent used was DOTAP (Boehringer Mannheim). Cells were incubated with the DOTAP/DNA mixture for 5 hours after which the cells were harvested and plated onto either 96 well or 384 well plates containing the appropriate concentration of test compound. The assay was allowed to continue for an additional 18-20 hours, after which the cells were lysed, with lysis buffer (1% triton X 100, 10% glycerol, 5 mM Dithiothreitol, 1 mM EGTA, 25 mM Tricine, pH 7.8) and the luciferase activity measured in the presence of Luciferase assay buffer (0.73 mM ATP, 22.3 mM Tricine, 0.11 mM EGTA, 0.55 mM Luciferin, 0.15 mM Coenzyme A, 0.5 mM HEPES, 10 mM Magnesium sulphate) on a standard luminomter plate reader (PE Biosystems, NorthStar Reader), using recommended operating instructions and conditions
(§2) Both the farnesoid X receptor/ECREx7 co-transfection assay (Example 9) and the TR-FRET assay (Example 8) can be used to establish the EC50/IC50 values for potency and percent activity or inhibition for efficacy. Efficacy defines the activity of a compound relative to a high control (chenodeoxycholic acid, CDCA) or a low control (DMSO/vehicle). The dose response curves are generated from an 8 point curve with concentrations differing by ½ LOG units. Each point represents the average of 4 wells of data from a 384 well plate. The curve for the data is generated by using the equation: Y=Bottom+(Top−Bottom)/(1+10^((Log EC50−X)*HillSlope))
The EC50/IC50 is therefore defined as the concentration at which an agonist or antagonist elicits a response that is half way between the Top (maximum) and Bottom (baseline) values. The EC50/IC50 values represented are the averages of at least 3 independent experiments. The determination of the relative efficacy or % control for an agonist is by comparison to the maximum response achieved by chenodeoxycholic acid that is measured individually in each dose response experiment. […]

A further assay addresses T2, farnesoid X receptor (Homo sapiens, UniProt Q96RI1).
T2 sequence (Q96RI1 258-485): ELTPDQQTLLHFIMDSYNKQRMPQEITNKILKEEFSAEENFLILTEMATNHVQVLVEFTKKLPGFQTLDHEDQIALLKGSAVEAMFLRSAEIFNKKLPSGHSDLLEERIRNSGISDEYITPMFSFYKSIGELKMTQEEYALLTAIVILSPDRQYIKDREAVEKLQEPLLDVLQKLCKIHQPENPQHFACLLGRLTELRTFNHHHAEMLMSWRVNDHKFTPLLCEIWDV
Briefly: one or more of the in vitro assays described herein (TR-FRET assay and/or co-transfection assay). The conditions noted are these: for Emax: agonist efficacy relative to CDCA, read-out: efficacy (first value, goes with EC50); for IC50: antagonist mode against CDCA, read-out: IC50 (apparent partial agonist activity); for EC50: read-out: EC50 (apparent partial agonist activity). The procedure:
The TR-FRET assay was performed by incubating 8 nM of GST-farnesoid X receptor-LBD (comprising […] fused in frame to the farnesoid X receptor ligand binding domain, (amino acids 244-471 of the human farnesoid X receptor)), 8 nM of Europium-labeled anti-GST antibody (Wallac/PE Life Sciences Cat#AD0064), 16 nM biotin-SRC-1 peptide [5′-biotin-[…]-CONH2], 20 nM APC-SA [allophycocyanin conjugated streptavidin] (Wallac/PE Life Sciences, Cat# AD0059A) in FRET assay buffer (20 mM KH2PO4/K2HPO4 (pH 7.3), 150 mM NaCl, 2 mM CHAPS, 2 mM EDTA, 1 mM DTT) in the presence of the test compound(s) for 2-4 hours at room temperature in a 384 well assay plate. Data was collected using an LJL Analyst using the standard operating instructions and conditions with readings at emission wavelengths of 615 nm and 665 nm after a delay of 65 μs and an excitation wavelength of 330 nm.
as §1, §2
The EC50/IC50 is therefore defined as the concentration at which an agonist or antagonist elicits a response that is half way between the Top (maximum) and Bottom (baseline) values. The EC50/IC50 values represented are the averages of at least 3 independent experiments. The determination of the relative efficacy or % control for an agonist is by comparison to the maximum response achieved by chenodeoxycholic acid that is measured individually in each dose response experiment.
For the antagonist assay, CDCA is added to each well of a 384 well plate to elicit a response. The % inhibition for each antagonist is therefore a measurement of the inhibition of the activity of CDCA. In this example, 100% inhibition would indicate that the activity of CDCA has been reduced to baseline levels, defined as the activity of the assay in the presence of DMSO only.
Background: TR-FRET usually uses a lanthanide donor and a delayed reading to cut background.

Where [2] appears, read: read-out: agonist activity EC50.

Each structure is given as a SMILES string. Where two headings read alike, the source gives them in different places. Bounds are passed on as bounds.

In the case of `CCNc1ccc(C(C)=O)cc1/N=C1\S/C(=C\N(C)c2ccccc2)C(=O)N1Cc1ccccc1` [No. 2, (2Z,5Z)-2-{[5-acetyl-2-(ethylamino)phenyl]imino}-5-{[methyl(phenyl)amino]methylidene)-3-(phenylmethyl)-1,3-thiazolidin-4-one], the EC50 in assay [1] (setting [2]) is at most 1000 nM. The compound also showed an Emax in assay [1] of 50 to 100%.
Usually IC50 stands for the concentration at which inhibition is half-maximal. In the case of `CCNc1ccc(C(C)=O)cc1/N=C1\S/C(=C\N(C)Cc2ccccc2)C(=O)N1Cc1ccccc1` [No. 4, (2Z,5Z)-2-{[5-acetyl-2-(ethylamino)phenyl]imino}-5-{[methyl(phenylmethyl)amino]methylidene}-3-(phenylmethyl)-1,3-thiazolidin-4-one], at farnesoid X receptor, the Emax fell in the range of 40 to 50%, the concentration for half-maximal inhibition (IC50) lay in the range of 300 to 500 nM and the EC50 was around 1000 nM. Besides, the EC50 in assay [1] (setting [2]) is at most 1000 nM. The compound also registered an Emax in assay [1] of 50 to 100%.
Take `CCNc1ccc(C#N)cc1/N=C1\S/C(=C\N2CCc3ccccc32)C(=O)N1Cc1ccccc1` [No. 5, 3-{[(2Z,5Z)-5-(2,3-dihydro-1H-indol-1-ylmethylidene)-4-oxo-3-(phenylmethyl)-1,3-thiazolidin-2-ylidene]amino}-4-(ethylamino)benzonitrile]: in assay [1] (read-out: agonist activity), the EC50 was below 200 nM. Besides, in assay [1], the Emax is at least 100%.
In the same order, the values of `CCNc1ccc(C(C)=O)cc1/N=C1\S/C(=C\N2CCc3ccccc32)C(=O)N1Cc1ccccc1` [No. 6, (2Z,5Z)-2-{[5-acetyl-2-(ethylamino)phenyl]imino}-5-(2,3-dihydro-1H-indol-1-ylmethylidene)-3-(phenylmethyl)-1,3-thiazolidin-4-one] are below 100 nM and above 100%.
On to `CC(=O)c1cccc(/N=C2\S/C(=C\N3CCc4ccccc43)C(=O)N2Cc2ccco2)c1` [No. 7, (2Z,5Z)-2-[(3-acetylphenyl)imino]-5-(2,3-dihydro-1H-indol-1-ylmethylidene)-3-(furan-2-ylmethyl)-1,3-thiazolidin-4-one], for which, in assay [1] (setting [2]), the EC50 is at most 1000 nM. Moreover, the Emax in assay [1] is 50 to 100%.
Turning to `CC(=O)Nc1ccc(/N=C2\S/C(=C\N3CCc4ccccc43)C(=O)N2Cc2ccco2)cc1` [No. 8, N-(4-{[(2Z,5Z)-5-(2,3-dihydro-1H-indol-1-ylmethylidene)-3-(furan-2-ylmethyl)-4-oxo-1,3-thiazolidin-2-ylidene]amino}phenyl)acetamide], the EC50 in assay [1] (setting [2]) was at most 1000 nM. The compound further showed an Emax in assay [1] of 50 to 100%.
For `CCNc1ccc(C#N)cc1/N=C1\S/C(=C\N(C)c2ccc(OC)cc2)C(=O)N1Cc1ccccc1` [No. 12, 4-(ethylamino)-3-{[(2Z,5Z)-5-({methyl[4-(methyloxy)phenyl]amino}methylidene)-4-oxo-3-(phenylmethyl)-1,3-thiazolidin-2-ylidene]amino} benzonitrile], on farnesoid X receptor, the Emax was in the range of 40 to 50%, the half-inhibitory concentration (IC50) was in the range of 300 to 500 nM and the EC50 is around 1000 nM.
On to `CCNc1ccc(C(C)=O)cc1/N=C1\S/C(=C\N(C)c2cccc(OC)c2)C(=O)N1Cc1ccccc1` [No. 15, (2Z,5Z)-2-{[5-acetyl-2-(ethylamino)phenyl]imino}-5-({methyl[3-(methyloxy)phenyl]amino}methylidene)-3-(phenylmethyl)-1,3-thiazolidin-4-one], for which the EC50 in assay [1] (read-out: agonist activity) was below 200 nM. Besides, the Emax in assay [1] is at least 100%.
Take `CCNc1ccc(C(C)=O)cc1/N=C1\S/C(=C\N(C)CCc2ccccc2)C(=O)N1Cc1ccccc1` [No. 19, (2Z,5Z)-2-{[5-acetyl-2-(ethylamino)phenyl]imino}-5-{[methyl(2-phenylethyl)amino]methylidene}-3-(phenylmethyl)-1,3-thiazolidin-4-one]: the EC50 in assay [1] (setting [2]) is at most 1000 nM. In assay [1], this compound returned an Emax of 50 to 100%.
`CCNc1ccc(C(C)=O)cc1/N=C1\S/C(=C\c2ccccc2)C(=O)N1Cc1ccccc1` [No. 23]: in assay [1] (setting [2]), the EC50 was at most 1000 nM. The Emax in assay [1] was in the range of 50 to 100%.
For `CCNc1ccc(C(C)=O)cc1/N=C1\S/C(=C\c2ccco2)C(=O)N1Cc1ccccc1` [No. 24, (2Z,5Z)-2-{[5-acetyl-2-(ethylamino)phenyl]imino}-5-(furan-2-ylmethylidene)-3-(phenylmethyl)-1,3-thiazolidin-4-one], in assay [1] (setting [2]), the EC50 is at most 1000 nM. In assay [1], the Emax lay within 50 to 100%.
